# Laboratory results from patent US9120756B2, “Substituted phenylureas and phenylamides as vanilloid receptor ligands” (Gruenenthal GmbH, priority 2009, dated 2015).
# Target: hVR1 (Homo sapiens (Human), UniProt Q8NER1)
# Experiment: FLIPR Ca2+ influx assay on CHO K1 cells transfected with the VR1 gene, capsaicin stimulus (method II)
# Type: cell-based
# Design: key to Ki (human being) Cap: result in words (NE / AG): AG=agonist; pAG=partial agonist; NE=no effect
# Settings: CHO-K1, read-out: Ki (human being) inhibition (as a percentage) @ 1 μM, capsaicin, inhibition determined at 1 μM
# From the text: In the process, the Ca^2+ influx is quantified in the FLIPR assay with the aid of a Ca^2+-sensitive dye (type Fluo-4, Molecular Probes Europe BV, Leiden, the Netherlands) in a fluorescent imaging plate reader (FLIPR, Molecular Devices, Sunnyvale, USA), as described hereinafter.
# The agonistic or antagonistic effect of the substances to be tested on the vanilloid receptor 1 (VR1) can also be determined using the following assay. In this assay, the influx of Ca^2+ through the channel is quantified with the aid of a Ca^2+-sensitive dye (type Fluo-4, Molecular Probes Europe BV, Leiden, the Netherlands) in a fluorescent imaging plate reader (FLIPR, Molecular Devices, Sunnyvale, USA).
# Chinese hamster ovary cells (CHO K1 cells, European Collection of Cell Cultures (ECACC) United Kingdom) are stably transfected with the VR1 gene. For functional testing, these cells are plated out on poly-D-lysine-coated black 96-well plates having a clear base (BD Biosciences, Heidelberg, Germany) at a density of 25,000 cells/well. The cells are incubated overnight at 37° C. and 5% CO2 in a culture medium (Ham's F12 nutrient mixture, 10% by volume of FCS (foetal calf serum), 18 μg/ml of L-proline). The next day the cells are incubated with Fluo-4 (Fluo-4 2 μM, 0.01% by volume of Pluronic F127, Molecular Probes in HBSS (Hank's buffered saline solution), Gibco Invitrogen GmbH, Karlsruhe, Germany) for 30 minutes at 37° C. Subsequently, the plates are washed three times with HBSS buffer and after further incubation for 15 minutes at RT used for Ca^2+ measurement in a FLIPR assay. The Ca^2+-dependent fluorescence is measured before and after the addition of the substances to be tested (λex wavelength=488 nm, λem=540 nm). Quantification is carried out by measuring the highest fluorescence intensity (FC, fluorescence counts) over time.
# The FLIPR protocol consists of 2 substance additions. First the compounds to be tested (10 μM) are pipetted onto the cells and the Ca^2+ influx is compared with the control (capsaicin 10 μM) (% activation based on the Ca^2+ signal after the addition of 10 μM of capsaicin). After 5 minutes' incubation, 100 nM of capsaicin are applied and the Ca^2+ influx is also determined.
# Desensitising agonists and antagonists led to suppression of the Ca^2+ influx.
# Starting from the percentage displacement caused by different concentrations of the compounds to be tested of general formula I, IC50 inhibitory concentrations which cause a 50-percent displacement of capsaicin were calculated. Ki values for the test substances were obtained by conversion by means of the Cheng-Prusoff equation (Cheng, Prusoff; Biochem. Pharmacol. 22, 3099-3108, 1973).
# hVR1, sequence (Q8NER1 whole entry): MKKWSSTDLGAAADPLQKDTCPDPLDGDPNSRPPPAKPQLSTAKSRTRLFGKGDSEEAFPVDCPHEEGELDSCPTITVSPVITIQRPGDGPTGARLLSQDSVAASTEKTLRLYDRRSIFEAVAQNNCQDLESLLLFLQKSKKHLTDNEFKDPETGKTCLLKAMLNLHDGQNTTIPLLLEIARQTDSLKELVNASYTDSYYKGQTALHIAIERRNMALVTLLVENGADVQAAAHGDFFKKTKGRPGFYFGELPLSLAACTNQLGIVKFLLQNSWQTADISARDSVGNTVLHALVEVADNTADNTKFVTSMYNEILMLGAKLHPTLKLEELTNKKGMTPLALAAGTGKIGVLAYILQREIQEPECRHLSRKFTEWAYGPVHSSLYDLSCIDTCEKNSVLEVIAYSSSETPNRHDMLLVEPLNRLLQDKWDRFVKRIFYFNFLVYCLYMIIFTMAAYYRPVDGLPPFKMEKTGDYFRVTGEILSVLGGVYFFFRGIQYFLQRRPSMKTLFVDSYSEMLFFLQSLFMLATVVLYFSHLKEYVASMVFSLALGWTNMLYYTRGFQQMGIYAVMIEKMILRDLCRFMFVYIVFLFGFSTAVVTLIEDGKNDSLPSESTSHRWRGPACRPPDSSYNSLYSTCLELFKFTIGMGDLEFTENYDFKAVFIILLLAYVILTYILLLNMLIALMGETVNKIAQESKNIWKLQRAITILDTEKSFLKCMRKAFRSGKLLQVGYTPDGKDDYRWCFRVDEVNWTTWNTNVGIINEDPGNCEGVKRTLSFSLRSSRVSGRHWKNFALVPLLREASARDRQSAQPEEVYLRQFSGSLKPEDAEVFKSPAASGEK
row,SMILES,inhibition at 1 µM [%]
1,"O=C(NCc1cc(C(F)(F)F)nn1-c1cccc(Cl)c1)C1(c2cccc(F)c2)CCCC1 [Example 120, N-((1-(3-chlorophenyl)-3-(trifluoromethyl)-1H-pyrazol-5-yl)methyl)-1-(3-fluorophenyl)cyclopentancarboxamide]",6

# Same assay, conditions: capsaicin
row,SMILES,Ki (human being) Cap: result in words (NE / AG)
1,"COc1c(F)cc(NC(=O)NCc2cc(C(C)(C)C)nn2-c2cccc(Cl)c2)cc1F [Example 61, 1-((3-tert-butyl-1-(3-chlorophenyl)-1H-pyrazol-5-yl)methyl)-3-(3,5-difluoro-4-methoxyphenyl)urea]",AG
2,"CC(C)(C)c1cc(CNC(=O)Cc2cccc(F)c2)n(-c2cccc(Cl)c2)n1 [Example 73, N-((3-tert-butyl-1-(3-chlorophenyl)-1H-pyrazol-5-yl)methyl)-2-(3-fluorophenyl)acetamide]",AG
3,"CC(C)(C)c1cc(CNC(=O)C2(c3cccc(F)c3)CC2)n(-c2cccc(Cl)c2)n1 [Example 118, N-((3-tert-butyl-1-(3-chlorophenyl)-1H-pyrazol-5-yl)methyl)-1-(3-fluorophenyl)cyclopropancarboxamide]",AG
4,"CC(C)(C)c1cc(CNC(=O)Nc2cccc(F)c2)n(-c2ccc(F)cc2)n1 [Example 122, 1-((3-tert-butyl-1-(4-fluorophenyl)-1H-pyrazol-5-yl)methyl)-3-(3-fluorophenyl)urea]",AG

# Same assay, conditions: capsaicin (Cap), read-out: Ki (human being) [nM] Cap
row,SMILES,Ki [nM]
1,"CC(C(=O)NCc1cc(C(F)(F)F)nn1-c1cccc(Cl)c1)c1cc(F)cc(F)c1 (stereo not shown) [Example 30, N-((1-(3-chlorophenyl)-3-(trifluoromethyl)-1H-pyrazol-5-yl)methyl)-2-(3,5-difluorophenyl)propanamide]",6.3
2,"CC(C(=O)NCc1cc(C(F)(F)F)nn1-c1cccc(Cl)c1)c1ccc(C(=O)Nc2ccccc2)c(F)c1 (stereo not shown) [Example 39, 4-(1-((1-(3-chlorophenyl)-3-(trifluoromethyl)-1H-pyrazol-5-yl)methylamino)-1-oxopropan-2-yl)-2-fluoro-N-phenylbenzamide]",7.2
3,"CC(C(=O)NCc1cc(C(F)(F)F)nn1-c1cccc(Cl)c1)c1ccc(C(=O)Nc2ccc(F)cc2)cc1 (stereo not shown) [Example 40, 4-(1-((1-(3-chlorophenyl)-3-(trifluoromethyl)-1H-pyrazol-5-yl)methylamino)-1-oxopropan-2-yl)-N-(4-fluorophenyl)benzamide]",0.8
4,"CC(C(=O)NCc1cc(C(F)(F)F)nn1-c1cccc(Cl)c1)c1ccc(C(=O)Nc2ccc(C(F)(F)F)cc2)cc1 (stereo not shown) [Example 41, 4-(1-((1-(3-chlorophenyl)-3-(trifluoromethyl)-1H-pyrazol-5-yl)methylamino)-1-oxopropan-2-yl)-N-(4-(trifluoromethyl)phenyl)benzamide]",85
5,"COc1c(F)cc(C(C)C(=O)NCc2cc(C(F)(F)F)nn2-c2cccc(Cl)c2)cc1F (stereo not shown) [Example 47, N-((1-(3-chlorophenyl)-3-(trifluoromethyl)-1H-pyrazol-5-yl)methyl)-2-(3,5-difluoro-4-methoxyphenyl)propanamide]",17
6,"O=C(NCc1cc(C(F)(F)F)nn1-c1cccc(Cl)c1)C1(c2cccc(F)c2)CCC1 [Example 119, N-((1-(3-chlorophenyl)-3-(trifluoromethyl)-1H-pyrazol-5-yl)methyl)-1-(3-fluorophenyl)cyclobutancarboxamide]",107

# Results, then the compound that gave them:
row,Ki [nM],SMILES
1,4,"CC(C(=O)NCc1cc(C(C)(C)C)nn1-c1cccc(Cl)c1)c1ccc(CNS(C)(=O)=O)c(F)c1 (stereo not shown) [Example 33, N-((3-tert-butyl-1-(3-chlorophenyl)-1H-pyrazol-5-yl)methyl)-2-(3-fluoro-4-(methylsulphonamidomethyl)phenyl)propanamide]"
2,56,"CC(C)(C(=O)NCc1cc(C(F)(F)F)nn1-c1cccc(Cl)c1)c1cccc(F)c1 [Example 117, N-((1-(3-chlorophenyl)-3-(trifluoromethyl)-1H-pyrazol-5-yl)methyl)-2-(3-fluorophenyl)-2-methylpropanamide]"
